Entries after “also recorded” stand apart in the source; their conditions may differ.
Experiments:
[1] = system: leucine-deprived GCN2−/− mice; test: C75 treatment of leucine-deprived GCN2−/− mice (liver steatosis, liver gene expression); assay type: in vivo; settings: 20 mg/kg IP, three doses over seven days
Protocol: FIG. 5. Leucine deprivation induced-liver steatosis in GCN2^−/− mice is prevented by inhibition of FAS expression. GCN2 KO (−/−) mice were fed a leucine-deprived diets for seven days and were given C75 at a dose of 20 mg/Kg body weight in 200 μl RPMI or only RPMI every other day by IP injection during this period. A. Liver histology for GCN2 KO mice. Sections from animals were stained with oil red O, magnification 40×. Lipid deposits are detected as red-stained areas. B and C. Expression of FAS mRNA (B) and FAS protein (C, top: western blot; bottom: FAS protein relative to tubulin and normalized to control diet group within same strains of mice). *Effect of with C75 treatment fed on (−) leu diet versus without C75 treatment fed on (−) leu diet or control diet in GCN2 KO mice (two-tailed student t-test; p<0.0001.). [KO: control diet (n=6); (−) leu diet (n=5); (−) leu diet+C75 (n=3)]. D and E. Expression of PPARα and ACO mRNA. *Effect of with C75 treatment versus without C75 treatment on either (−) leu diet (*a: p<0.001) or control diet group (*b: p<0.001) in GCN2 KO mice (two-tailed student t-test; p<0.0001.). [KO: control diet (n=6); (−) leu diet (n=5); (−) leu diet+C75 (n=3)].
Wild-type C57BL/6J (GCN2^+/+) mice were obtained from Jackson Laboratories (Bar Harbor, Me.). […] Food intake and body weight were recorded daily. […] Body, liver and adipose tissue weight were recorded at the time of sacrifice. […]
Total RNA was prepared from frozen liver using an RNase mini kit (Qiagen). Quantitative RT-PCR was performed using co-amplification of GAPDH as an internal control. 1 μg of RNA was reverse transcribed with random primers (Promega) and then quantitative PCR was performed with the qPCR core kit for sybergreen I (Eurogentec) by 7000 sequence detection system (Applied Biosystems). […] At a specific threshold in the linear amplification stage, the cycle differences between amplified GAPDH and cDNA of interest were used to determine the relative quantity of genes of interest. […]

[2] = system: liver FAS expression; settings: 24 hrs after a single IP injection (30 mg/kg body weight); cited from earlier work
[3] = system: GCN2−/− mice; test: PPARα agonist WY compound in leucine-deprived GCN2−/− mice (fatty liver); assay type: in vivo

| Compound | FAS mRNA and protein levels in liver [1] | levels of PPARα and ACO mRNA in liver [1] | liver steatosis [1] | liver FAS expression [2] | development of fatty liver [3] |
| --- | --- | --- | --- | --- | --- |
| C=C1C(=O)OC(CCCCCCCC)C1C(=O)O (centres unmarked) [C75] | repressed | reduced | prevented | inhibit FAS expression significantly; also recorded: significant reductions |  |
| Cc1cccc(Nc2cc(Cl)nc(SCC(=O)O)n2)c1C [WY compound] |  |  |  |  | not able to prevent |
